Measurements from patent US5684024A, “Pyrazole dimers compositions and methods for treating influenza” (priority 1996, dated 1997).

How the values were obtained:
[1] = target: influenza A/WSN virus transcriptase (Influenza A virus, UniProt P03427+P03430+P15659); assay: biochemical; conditions: read-out: IC50, concentration required to achieve 50% inhibition of influenza A/WSN virus transcriptase activity
influenza A/WSN = assay: Plaque reduction in MDCK cells, influenza A/WSN; conditions: 48 h, read-out: IC50, […], A/WSN
Description: (§1) Compounds were evaluated for antiviral activity against influenza A/WSN by plaque reduction in Madin Darby canine kidney (MDCK) cells. Duplicate monolayers of MDCK cells in 6 well plates were washed free of protein-containing media, infected with 50-100 plaque-forming units of virus (0.4 ml volume), and incubated at 37° C. for 60 min. After aspiration of the virus inoculum, a 0.6% agarose overlay (3 ml) containing Eagle minimal essential media, trypsin (8 μg/ml), and the appropriate drug dilution (final concentration of 1% DMSO) was added to the cell monolayer. Plates were incubated at 37° C. in a humidified atmosphere of 5% CO2 in air. After 48 h, monolayers were fixed with glutaraldehyde, stained with 0.1% crystal violet and the plaques were counted. The percentage of plaque inhibition relative to the infected control (no drug) plates were calculated for each drug concentration and the 50% inhibitory concentration (IC50) was determined.

influenza A/Victoria = assay: Plaque reduction in MDCK cells, influenza A/Victoria; conditions: 48 h, read-out: IC50, […], A/Victoria
Description: as §1

Structure (SMILES)	IC50 [1]	IC50 (influenza A/WSN)	IC50 (influenza A/Victoria)
CC(=O)C1=NN(c2ccc(C(=O)O)cc2C)C(=O)C1=C1C(=O)N(c2ccc(C(=O)O)cc2C)N=C1C(C)=O [Example 4, 3,3'-Bis[3-Methyl-4-(2-hydroxy-4-acetylpyrazolyl)-benzoic Acid]]	200 nM	50000 nM	25000 nM
COc1cc(C(=O)O)ccc1N1N=C(C(C)=O)C(=C2C(=O)N(c3ccc(C(=O)O)cc3OC)N=C2C(C)=O)C1=O [Example 5]	1200 nM		
CC(=O)C1=NN(c2ccc(C(=O)O)c(Cl)c2)C(=O)C1=C1C(=O)N(c2ccc(C(=O)O)c(Cl)c2)N=C1C(C)=O [Example 6]	800 nM		
CC(=O)C1=NN(c2ccc(C(=O)O)cc2)C(=O)C1=C1C(=O)N(c2ccc(C(=O)O)cc2)N=C1C(C)=O [Example 7]	500 nM	50000 nM	30000 nM
CC(=O)C1=NN(c2cccc(C(=O)O)c2)C(=O)C1=C1C(=O)N(c2cccc(C(=O)O)c2)N=C1C(C)=O [Example 8]	350 nM		
CC(=O)C1=NN(c2ccc(Cl)c(C(=O)O)c2)C(=O)C1=C1C(=O)N(c2ccc(Cl)c(C(=O)O)c2)N=C1C(C)=O [Example 9]	250 nM		
CC(=O)C1=NN(c2cc(C(=O)O)ccc2C)C(=O)C1=C1C(=O)N(c2cc(C(=O)O)ccc2C)N=C1C(C)=O [Example 10]	350 nM		
